Source: ChEMBL document CHEMBL5465560, “Selectivity Literature for EUbOPEN Chemogenomic Library” (2024)

Legend:
[1] = molecular target: T1, Serine/threonine-protein kinase D3 (Homo sapiens) (UniProt O94806); assay: Selectivity interaction (KinomeScan (DiscoverX)) EUB0000092b PRKD3; details: at 10 µM
T1 sequence (whole entry): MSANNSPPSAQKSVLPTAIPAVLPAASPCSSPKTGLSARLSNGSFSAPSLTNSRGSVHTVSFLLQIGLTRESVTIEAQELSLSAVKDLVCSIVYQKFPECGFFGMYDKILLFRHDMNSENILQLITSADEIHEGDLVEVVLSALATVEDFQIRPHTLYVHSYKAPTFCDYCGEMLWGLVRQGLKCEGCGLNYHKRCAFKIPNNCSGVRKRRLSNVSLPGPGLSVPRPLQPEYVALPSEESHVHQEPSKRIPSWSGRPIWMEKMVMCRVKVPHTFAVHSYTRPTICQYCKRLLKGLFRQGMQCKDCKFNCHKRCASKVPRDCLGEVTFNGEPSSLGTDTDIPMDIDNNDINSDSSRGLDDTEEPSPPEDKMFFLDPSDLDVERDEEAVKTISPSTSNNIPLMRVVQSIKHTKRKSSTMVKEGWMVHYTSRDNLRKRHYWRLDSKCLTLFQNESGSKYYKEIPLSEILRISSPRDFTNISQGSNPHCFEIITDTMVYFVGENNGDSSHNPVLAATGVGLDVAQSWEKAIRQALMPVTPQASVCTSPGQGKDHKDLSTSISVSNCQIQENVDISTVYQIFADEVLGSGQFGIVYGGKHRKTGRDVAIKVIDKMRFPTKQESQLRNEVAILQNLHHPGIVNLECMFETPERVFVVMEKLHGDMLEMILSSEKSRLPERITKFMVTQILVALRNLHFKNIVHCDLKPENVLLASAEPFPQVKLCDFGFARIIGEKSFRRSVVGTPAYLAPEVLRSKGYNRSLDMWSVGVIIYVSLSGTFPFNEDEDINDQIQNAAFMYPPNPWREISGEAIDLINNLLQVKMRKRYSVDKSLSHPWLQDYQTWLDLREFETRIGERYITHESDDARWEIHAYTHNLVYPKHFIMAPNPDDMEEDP

[2] = molecular target: 5-hydroxytryptamine receptor 2A (Homo sapiens, UniProt P28223); assay: Selectivity interaction (Panel of kinases, GPCRs, ion channels and transporters (enzymatic assay)) EUB0000266bCl HTR2A
Sequence of 5-hydroxytryptamine receptor 2A (P28223 whole entry): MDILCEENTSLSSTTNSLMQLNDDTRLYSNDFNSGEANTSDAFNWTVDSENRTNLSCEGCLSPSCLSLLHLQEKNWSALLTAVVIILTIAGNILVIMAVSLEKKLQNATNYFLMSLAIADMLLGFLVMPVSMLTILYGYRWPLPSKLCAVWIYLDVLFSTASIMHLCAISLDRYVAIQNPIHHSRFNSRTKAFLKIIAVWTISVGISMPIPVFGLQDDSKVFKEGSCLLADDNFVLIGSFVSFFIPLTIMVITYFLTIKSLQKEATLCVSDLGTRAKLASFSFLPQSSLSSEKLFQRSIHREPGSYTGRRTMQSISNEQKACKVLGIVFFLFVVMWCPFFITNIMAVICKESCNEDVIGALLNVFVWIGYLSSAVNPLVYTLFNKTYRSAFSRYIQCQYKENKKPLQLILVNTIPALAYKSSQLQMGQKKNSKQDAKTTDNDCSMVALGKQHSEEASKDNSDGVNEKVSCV

[3] = molecular target: Serine/threonine-protein kinase PAK 4 (Homo sapiens, UniProt O96013); assay: Selectivity interaction (Kinase panel (Z-LYTE Assay)) EUB0001632a PAK4; details: at 10 µM
Sequence of Serine/threonine-protein kinase PAK 4 (O96013 whole entry, looked up): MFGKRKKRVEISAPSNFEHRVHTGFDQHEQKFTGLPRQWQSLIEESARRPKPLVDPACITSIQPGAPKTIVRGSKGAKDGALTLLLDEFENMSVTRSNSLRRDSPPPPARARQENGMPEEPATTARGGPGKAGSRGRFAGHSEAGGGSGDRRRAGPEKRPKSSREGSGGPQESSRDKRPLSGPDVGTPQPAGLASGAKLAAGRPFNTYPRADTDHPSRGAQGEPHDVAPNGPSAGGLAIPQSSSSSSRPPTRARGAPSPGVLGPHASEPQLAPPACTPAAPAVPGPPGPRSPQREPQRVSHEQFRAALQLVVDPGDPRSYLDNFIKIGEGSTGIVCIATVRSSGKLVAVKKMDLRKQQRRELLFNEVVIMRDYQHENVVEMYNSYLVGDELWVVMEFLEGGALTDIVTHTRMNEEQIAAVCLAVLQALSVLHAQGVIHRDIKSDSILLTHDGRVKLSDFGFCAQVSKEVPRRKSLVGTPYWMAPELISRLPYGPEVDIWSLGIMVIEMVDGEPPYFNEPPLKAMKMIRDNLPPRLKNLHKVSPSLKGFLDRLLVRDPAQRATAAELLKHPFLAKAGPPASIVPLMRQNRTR

[4] = molecular target: T2, Mitogen-activated protein kinase kinase kinase 2 (Homo sapiens) (UniProt Q9Y2U5); assay: Selectivity interaction (ActivX KiNativ screen (kinase selectivity in THP-1 cell lysates)) EUB0000639a MAP3K2; format: subcellular; details: lysate
T2 sequence (whole entry): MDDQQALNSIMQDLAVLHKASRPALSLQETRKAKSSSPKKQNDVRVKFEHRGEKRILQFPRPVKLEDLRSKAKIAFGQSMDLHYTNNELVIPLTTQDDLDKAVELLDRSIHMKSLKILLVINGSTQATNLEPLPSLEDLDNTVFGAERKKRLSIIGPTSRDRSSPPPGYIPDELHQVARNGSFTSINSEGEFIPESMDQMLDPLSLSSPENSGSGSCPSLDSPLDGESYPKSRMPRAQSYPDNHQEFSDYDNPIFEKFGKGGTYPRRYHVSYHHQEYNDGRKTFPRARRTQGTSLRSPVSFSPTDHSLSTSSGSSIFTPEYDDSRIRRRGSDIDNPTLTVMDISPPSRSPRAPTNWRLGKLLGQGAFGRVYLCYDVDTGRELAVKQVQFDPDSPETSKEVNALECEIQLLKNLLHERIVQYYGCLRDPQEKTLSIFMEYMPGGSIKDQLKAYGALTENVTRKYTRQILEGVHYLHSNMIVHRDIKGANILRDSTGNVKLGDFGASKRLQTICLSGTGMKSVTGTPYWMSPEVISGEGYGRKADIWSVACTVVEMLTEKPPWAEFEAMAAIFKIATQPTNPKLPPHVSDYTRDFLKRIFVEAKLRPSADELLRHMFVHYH

[5] = molecular target: MAP/microtubule affinity-regulating kinase 3 (Homo sapiens) (UniProt P27448); assay: Selectivity interaction (Kinase panel (Invitrogen)) EUB0000639a MARK3; details: at 200 nM
Sequence of MAP/microtubule affinity-regulating kinase 3 (Homo sapiens) (P27448 whole entry, looked up): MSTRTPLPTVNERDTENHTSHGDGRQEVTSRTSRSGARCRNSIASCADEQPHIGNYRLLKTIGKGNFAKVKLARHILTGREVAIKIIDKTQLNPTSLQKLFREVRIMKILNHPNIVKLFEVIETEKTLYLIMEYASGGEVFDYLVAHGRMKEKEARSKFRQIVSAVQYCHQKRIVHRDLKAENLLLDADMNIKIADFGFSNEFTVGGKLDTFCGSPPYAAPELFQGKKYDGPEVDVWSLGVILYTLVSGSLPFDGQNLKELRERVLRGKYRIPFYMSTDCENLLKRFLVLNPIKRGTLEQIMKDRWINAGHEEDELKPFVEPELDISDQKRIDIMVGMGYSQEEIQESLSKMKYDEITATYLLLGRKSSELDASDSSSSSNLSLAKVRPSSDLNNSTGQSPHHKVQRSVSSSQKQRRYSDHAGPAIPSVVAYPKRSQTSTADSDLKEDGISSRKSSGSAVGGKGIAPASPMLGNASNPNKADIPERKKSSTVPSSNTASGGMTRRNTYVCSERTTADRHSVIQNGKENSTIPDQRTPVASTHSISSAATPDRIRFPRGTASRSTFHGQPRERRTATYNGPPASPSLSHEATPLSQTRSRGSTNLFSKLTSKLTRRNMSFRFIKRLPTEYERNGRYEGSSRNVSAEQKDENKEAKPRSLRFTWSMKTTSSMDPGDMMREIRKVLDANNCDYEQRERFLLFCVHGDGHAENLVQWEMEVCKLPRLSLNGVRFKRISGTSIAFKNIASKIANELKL

[6] = molecular target: NT-3 growth factor receptor (Homo sapiens, UniProt Q16288); assay: Selectivity interaction (Kinase panel (Invitrogen)) EUB0000639a NTRK3; details: at 200 nM
Sequence of NT-3 growth factor receptor (Q16288 32-839 limits assumed): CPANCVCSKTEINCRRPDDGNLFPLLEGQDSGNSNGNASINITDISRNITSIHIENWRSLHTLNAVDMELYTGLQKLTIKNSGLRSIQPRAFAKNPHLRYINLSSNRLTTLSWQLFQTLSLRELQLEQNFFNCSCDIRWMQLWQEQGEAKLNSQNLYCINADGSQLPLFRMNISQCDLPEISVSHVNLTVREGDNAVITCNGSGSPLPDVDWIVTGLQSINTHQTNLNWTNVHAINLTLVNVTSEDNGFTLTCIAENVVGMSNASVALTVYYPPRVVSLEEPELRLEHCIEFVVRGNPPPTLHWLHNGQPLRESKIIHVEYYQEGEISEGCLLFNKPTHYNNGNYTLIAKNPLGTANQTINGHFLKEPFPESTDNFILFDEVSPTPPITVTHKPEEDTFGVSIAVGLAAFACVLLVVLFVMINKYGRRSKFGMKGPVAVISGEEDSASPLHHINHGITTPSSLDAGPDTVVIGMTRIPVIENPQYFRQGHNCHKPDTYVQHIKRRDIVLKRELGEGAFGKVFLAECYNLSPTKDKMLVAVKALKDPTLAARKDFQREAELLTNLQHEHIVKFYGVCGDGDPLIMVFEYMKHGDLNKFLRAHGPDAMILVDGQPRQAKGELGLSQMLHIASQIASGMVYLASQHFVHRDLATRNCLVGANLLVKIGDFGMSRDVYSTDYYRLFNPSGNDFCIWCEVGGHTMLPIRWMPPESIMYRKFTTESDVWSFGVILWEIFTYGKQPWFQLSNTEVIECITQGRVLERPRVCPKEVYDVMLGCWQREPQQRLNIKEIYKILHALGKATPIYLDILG

[7] = molecular target: Interferon-induced, double-stranded RNA-activated protein kinase (Homo sapiens) (UniProt P19525); assay: Selectivity interaction (ActivX KiNativ screen (kinase selectivity in THP-1 cell lysates)) EUB0000639a EIF2AK2; format: subcellular; details: lysate
Sequence of Interferon-induced, double-stranded RNA-activated protein kinase (Homo sapiens) (P19525 whole entry): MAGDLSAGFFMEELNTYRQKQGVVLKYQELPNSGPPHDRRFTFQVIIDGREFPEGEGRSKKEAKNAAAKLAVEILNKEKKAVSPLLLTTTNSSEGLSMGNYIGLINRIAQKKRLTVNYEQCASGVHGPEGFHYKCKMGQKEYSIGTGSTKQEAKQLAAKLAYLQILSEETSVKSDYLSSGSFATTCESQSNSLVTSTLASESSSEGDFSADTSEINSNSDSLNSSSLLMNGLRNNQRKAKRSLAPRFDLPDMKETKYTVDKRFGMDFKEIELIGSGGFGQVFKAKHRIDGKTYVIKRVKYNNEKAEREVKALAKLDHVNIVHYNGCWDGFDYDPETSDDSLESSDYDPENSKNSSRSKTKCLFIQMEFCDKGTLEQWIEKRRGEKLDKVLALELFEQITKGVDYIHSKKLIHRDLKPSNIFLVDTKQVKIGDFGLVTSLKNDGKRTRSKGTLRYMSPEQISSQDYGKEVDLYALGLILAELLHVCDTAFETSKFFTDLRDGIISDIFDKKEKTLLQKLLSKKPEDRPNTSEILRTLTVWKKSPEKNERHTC

[8] = molecular target: Insulin receptor-related protein (Homo sapiens) (UniProt P14616); assay: Selectivity interaction (SelectScreen profiling (Invitrogen)) EUB0000607a INSRR; details: at 2 µM
Sequence of Insulin receptor-related protein (Homo sapiens) (P14616 27-742 limits assumed): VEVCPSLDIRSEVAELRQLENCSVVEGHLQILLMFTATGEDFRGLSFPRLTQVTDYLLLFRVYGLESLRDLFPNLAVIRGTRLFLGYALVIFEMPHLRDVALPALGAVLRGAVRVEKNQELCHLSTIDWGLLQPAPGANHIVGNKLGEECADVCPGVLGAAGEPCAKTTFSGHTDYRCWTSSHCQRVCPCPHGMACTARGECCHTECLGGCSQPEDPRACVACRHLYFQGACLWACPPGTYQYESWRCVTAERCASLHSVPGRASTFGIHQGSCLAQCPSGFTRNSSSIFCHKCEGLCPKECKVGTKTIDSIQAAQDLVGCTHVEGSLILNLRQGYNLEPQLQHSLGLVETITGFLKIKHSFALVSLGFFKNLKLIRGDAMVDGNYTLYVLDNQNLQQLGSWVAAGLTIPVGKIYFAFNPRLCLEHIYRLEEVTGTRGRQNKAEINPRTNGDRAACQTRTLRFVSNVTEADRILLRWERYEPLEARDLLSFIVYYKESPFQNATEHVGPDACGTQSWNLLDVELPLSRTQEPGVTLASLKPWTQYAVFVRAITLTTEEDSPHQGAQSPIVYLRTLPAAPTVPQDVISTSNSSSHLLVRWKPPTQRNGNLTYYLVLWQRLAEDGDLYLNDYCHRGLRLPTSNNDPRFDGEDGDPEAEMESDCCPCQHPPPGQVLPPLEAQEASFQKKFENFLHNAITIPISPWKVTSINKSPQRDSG
Sequence of Insulin receptor-related protein (Homo sapiens) (P14616 747-1297 limits assumed): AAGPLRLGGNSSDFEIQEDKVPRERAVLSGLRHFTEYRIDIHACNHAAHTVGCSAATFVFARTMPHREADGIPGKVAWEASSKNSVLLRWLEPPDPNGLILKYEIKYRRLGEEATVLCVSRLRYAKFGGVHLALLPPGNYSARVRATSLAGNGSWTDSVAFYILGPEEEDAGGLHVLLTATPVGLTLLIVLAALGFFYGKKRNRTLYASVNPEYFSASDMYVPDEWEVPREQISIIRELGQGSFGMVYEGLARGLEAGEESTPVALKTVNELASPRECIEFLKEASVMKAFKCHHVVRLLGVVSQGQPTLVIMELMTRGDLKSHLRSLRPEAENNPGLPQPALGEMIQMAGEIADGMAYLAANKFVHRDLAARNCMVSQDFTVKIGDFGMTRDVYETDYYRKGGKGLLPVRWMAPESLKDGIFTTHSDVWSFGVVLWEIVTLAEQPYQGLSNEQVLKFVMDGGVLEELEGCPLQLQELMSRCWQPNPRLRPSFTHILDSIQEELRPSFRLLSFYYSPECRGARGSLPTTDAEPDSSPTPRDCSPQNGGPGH

[9] = molecular target: T3, Dual specificity mitogen-activated protein kinase kinase 3 (Homo sapiens) (UniProt P46734); assay: Selectivity interaction (KinomeScan (DiscoverX)) EUB0000607a MAP2K3; details: at 10 µM
T3 sequence (whole entry): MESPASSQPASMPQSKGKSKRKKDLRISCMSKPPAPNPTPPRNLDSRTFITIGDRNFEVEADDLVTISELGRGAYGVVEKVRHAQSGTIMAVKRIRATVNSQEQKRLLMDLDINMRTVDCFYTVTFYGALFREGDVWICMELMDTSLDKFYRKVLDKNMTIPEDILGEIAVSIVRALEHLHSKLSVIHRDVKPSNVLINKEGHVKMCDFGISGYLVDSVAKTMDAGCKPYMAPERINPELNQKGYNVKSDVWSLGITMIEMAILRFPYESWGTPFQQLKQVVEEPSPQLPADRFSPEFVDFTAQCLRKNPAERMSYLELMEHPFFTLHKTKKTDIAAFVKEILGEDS

**Q.** `CCC(=O)N1CCN(c2ccc(-n3c(=O)ccc4cnc5ccc(-c6cnc7ccccc7c6)cc5c43)cc2C(F)(F)F)CC1` was tested. Which % of control [1] did it give?
**A.** 100%

**Q.** With `CCn1c(-c2nc3cc(C(=O)N4CCCC(N)C4)ccc3n2C)cc2ccccc21` (configuration not stated) as the compound, how does the pXC50 [2] read?
**A.** < 4.4 M

**Q.** How did the % of control [3] turn out when `Cn1cc(-n2cnc3c(NCc4nc5cc(Cl)c(Cl)cc5[nH]4)nc(N4CCOCC4)nc32)cn1` was run?
**A.** 7.15%

**Q.** With `CC[C@@H]1[C@H](F)C(=O)N[C@@H]1COc1nccc2cc(C(N)=O)c(OC)cc12` [ZIMLOVISERTIB] as the compound, how does the % of inhibition ([4]; at 0.01 µM) read?
**A.** -0.4%

**Q.** And the % of inhibition ([4]; at 0.04 µM)?
**A.** -0.5%

**Q.** What about the % of inhibition ([4]; at 0.2 µM) of the same compound?
**A.** -5.2%

**Q.** What about the % of inhibition ([4]; at 1 µM) of the same compound?
**A.** 3%

**Q.** And the % of inhibition ([4]; at 5 µM)?
**A.** 6.3%

**Q.** And the % of inhibition [5]?
**A.** 12.4%

**Q.** What about the % of inhibition [6] of the same compound?
**A.** 21.9%

**Q.** What about the % of inhibition ([7]; at 0.01 µM) of the same compound?
**A.** 0.5%

**Q.** And the % of inhibition ([7]; at 0.04 µM)?
**A.** -0.3%

**Q.** And the % of inhibition ([7]; at 0.2 µM)?
**A.** 7.5%

**Q.** And the % of inhibition ([7]; at 1 µM)?
**A.** -3.5%

**Q.** What about the % of inhibition ([7]; at 5 µM) of the same compound?
**A.** -12.9%

**Q.** Which results are given for `CNC(=O)Nc1ccc(-c2nc(N3CC4CCC(C3)O4)c3cnn(C4CCC5(CC4)OCCO5)c3n2)cc1`?
**A.** % of inhibition [8]: 6%; % of control [9]: 89%
